One series concerns the target D(3) dopamine receptor (Homo sapiens, UniProt P35462). The experiment in a line: Displacement of [3H]spiperone from human dopamine receptor subtype hD3 expressed in CHO cells. The series is classed as cell-based.
The target of a further series is D(2) dopamine receptor (Homo sapiens, UniProt P14416). The series can be described thus: Displacement of [3H]spiperone from human dopamine D2 receptor in CHO cells. The series is classed as cell-based. (Displacement assays read how much labelled ligand stays bound in the presence of the test substance.)
Sequence of D(2) dopamine receptor (P14416 whole entry): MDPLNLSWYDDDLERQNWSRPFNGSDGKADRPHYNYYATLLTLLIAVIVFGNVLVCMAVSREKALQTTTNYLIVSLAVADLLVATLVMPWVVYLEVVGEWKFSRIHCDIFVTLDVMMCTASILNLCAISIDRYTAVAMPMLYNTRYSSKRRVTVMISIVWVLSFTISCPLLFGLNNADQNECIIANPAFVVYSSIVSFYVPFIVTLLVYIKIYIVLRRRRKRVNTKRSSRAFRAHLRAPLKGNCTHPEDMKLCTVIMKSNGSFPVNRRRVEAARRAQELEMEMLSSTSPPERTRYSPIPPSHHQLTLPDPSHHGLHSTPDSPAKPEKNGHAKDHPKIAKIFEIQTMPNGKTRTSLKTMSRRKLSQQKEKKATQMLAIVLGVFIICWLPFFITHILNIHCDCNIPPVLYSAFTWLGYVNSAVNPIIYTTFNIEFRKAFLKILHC
A further series deals with T1, D(4) dopamine receptor (Homo sapiens, UniProt P21917).
T1 sequence (P21917 whole entry): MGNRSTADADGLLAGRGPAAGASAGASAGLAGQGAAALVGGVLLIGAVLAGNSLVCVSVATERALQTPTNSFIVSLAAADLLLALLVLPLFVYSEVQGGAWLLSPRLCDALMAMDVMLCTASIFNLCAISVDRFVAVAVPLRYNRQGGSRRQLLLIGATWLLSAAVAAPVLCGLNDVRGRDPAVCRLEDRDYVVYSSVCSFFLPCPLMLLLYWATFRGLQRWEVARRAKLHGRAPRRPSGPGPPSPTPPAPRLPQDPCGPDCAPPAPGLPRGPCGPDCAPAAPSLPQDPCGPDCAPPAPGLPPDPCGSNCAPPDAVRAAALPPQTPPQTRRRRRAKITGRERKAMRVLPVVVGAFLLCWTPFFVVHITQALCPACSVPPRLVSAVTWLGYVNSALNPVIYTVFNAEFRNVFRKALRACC
The experiment in a line: Displacement of [3H]spiperone from human dopamine receptor subtype hD4 expressed in HEK293 cells. The series is classed as cell-based.

Series [1] concerns the target Dopamine receptors; D2 & D4 (Homo sapiens) (UniProt P14416+P21917). The series can be described thus: Ratio of dopamine D2/D4 receptor binding. The series is classed as protein assay.
Series [2] can be described thus: Bioavailability was evaluated in rat at an intravenous dose of 3 mg/kg and peroral dose of 5 mg/kg. The series is classed as ADME, organism-based. The conditions noted are these: in vivo, po, read-out: Bioavailabiility.
A short description of series [3]: Bioavailability was evaluated in rhesus monkey at an intravenous dose of 1 mg/kg and peroral dose of 1 mg/kg. The conditions noted are these: in vivo, po, read-out: Bioavailabiility. The format is ADME, organism-based, Macaca mulatta.
Series [4] is described as follows: Maximum concentration in plasma (Cmax) was evaluated in rat at an intravenous dose of 3 mg/kg and peroral dose of 5 mg/kg. The series is classed as ADME, organism-based. The conditions noted are these: po.
Series [5] is described as follows: Maximum concentration in plasma (Cmax) was evaluated in rhesus monkey at an intravenous dose of 1 mg/kg and peroral dose of 1 mg/kg. The format is ADME, organism-based, Macaca mulatta. The conditions noted are these: po.
Series [6] has as its system Rattus norvegicus. The series can be described thus: Plasma clearance was evaluated in rat at an intravenous dose of 3 mg/kg and peroral dose of 5 mg/kg. The format is ADME, organism-based. The conditions noted are these: in vivo.
Series [7] relates to Rattus norvegicus. The experiment in a line: Volume of distribution (Vss) was evaluated in rat at an intravenous dose of 3 mg/kg and peroral dose of 5 mg/kg. The following applies: in vivo. The series is classed as ADME, organism-based.
The subject of a further series is Rhesus monkey. The experiment in a line: Volume of distribution (Vss) was evaluated in rhesus monkey at an intravenous dose of 1 mg/kg and peroral dose of 1 mg/kg. The series is classed as ADME, organism-based, Macaca mulatta. The following applies: in vivo.
Series [8] can be described thus: Half life was evaluated in rat at an intravenous dose of 3 mg/kg and peroral dose of 5 mg/kg. The series is classed as ADME, organism-based. The following applies: in vivo.
A short description of series [9]: Half life was evaluated in rhesus monkey at an intravenous dose of 1 mg/kg and peroral dose of 1 mg/kg. The format is ADME, organism-based, Macaca mulatta. The conditions noted are these: in vivo.

The text below walks through data of ChEMBL document CHEMBL1130515, “4-Heterocyclyl tetrahydropyridines as selective ligands for the human dopamine D4 receptor” (Bioorg Med Chem Lett, 1997).

SMILES strings stand for the structures.

As usually defined, the Ki is a measure of affinity in units of concentration, obtained from inhibition or displacement. For orientation: Cmax means the maximum level reached in the sampled fluid or tissue. A word on the half-life: it is the time in which the quantity being followed falls by half.

Sequence of Dopamine receptors; D2 & D4 (Homo sapiens) (P14416 whole entry, looked up, one chain of several): as the sequence (P14416 whole entry) above
Sequence of D(3) dopamine receptor (P35462 whole entry): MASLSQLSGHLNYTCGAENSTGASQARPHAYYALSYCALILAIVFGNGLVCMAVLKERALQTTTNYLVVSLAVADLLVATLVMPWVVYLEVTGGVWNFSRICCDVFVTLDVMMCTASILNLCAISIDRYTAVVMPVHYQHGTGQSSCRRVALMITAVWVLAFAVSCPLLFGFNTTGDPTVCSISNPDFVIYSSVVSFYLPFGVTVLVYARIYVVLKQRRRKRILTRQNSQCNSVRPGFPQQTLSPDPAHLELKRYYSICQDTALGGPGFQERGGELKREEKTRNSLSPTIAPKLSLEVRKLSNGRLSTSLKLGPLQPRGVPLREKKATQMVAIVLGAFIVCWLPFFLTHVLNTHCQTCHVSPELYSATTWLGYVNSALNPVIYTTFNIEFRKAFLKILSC

`Clc1ccccc1CN1CC=C(c2nc3ccccc3s2)CC1`: the Ki at D(3) dopamine receptor was 1400 nM; at D(2) dopamine receptor it was greater than 2000 nM; at D(4) dopamine receptor, 87 nM. The Ratio in [1] is greater than 23.
On the same counts, the results for `Clc1ccc(CN2CC=C(c3nc4cc(Cl)ccc4s3)CC2)cc1` are 660 nM, 2000 nM, 21 nM and 97.
On to `C1=C(c2nc3ccccc3s2)CCN(Cc2ccccc2)C1`, for which the values for the inhibitory constant (Ki) on D(3) dopamine receptor, on D(2) dopamine receptor and at D(4) dopamine receptor were 560 nM, 600 nM and 5 nM, respectively. Moreover, the Ratio in series [1] was 120.
On the same counts, the results for `Clc1ccc2oc(C3=CCN(Cc4ccccc4)CC3)nc2c1` are 1600 nM, greater than 1800 nM, 17 nM and greater than 100.
Turning to `Clc1ccc(CN2CC=C(c3nc4cc(Cl)ccc4o3)CC2)cc1`, the results for the Ki on D(3) dopamine receptor, at D(2) dopamine receptor and at D(4) dopamine receptor were greater than 4500 nM, greater than 1700 nM and 8.4 nM, respectively. In addition, in series [1], the Ratio was greater than 200.
In the case of `Clc1cccc(CN2CC=C(c3nc4ccccc4s3)CC2)c1`, the Ki came to 630 nM at D(3) dopamine receptor, 340 nM at D(2) dopamine receptor and 8.1 nM at D(4) dopamine receptor. Further, the Ratio in series [1] came to 42.
For `C1=C(c2nc3ccccc3o2)CCN(Cc2ccccc2)C1`, in that order: 4500 nM, 240 nM, 97 nM and 3.
For `Clc1ccc(CN2CC=C(c3nc4ccccc4[nH]3)CC2)cc1`, in that order: 1600 nM, 670 nM, 68 nM and 10.
For `Clc1ccc(CN2CC=C(c3nc4cc(Cl)ccc4[nH]3)CC2)cc1`, the Ki on D(3) dopamine receptor amounted to 900 nM; at D(2) dopamine receptor, 330 nM; on D(4) dopamine receptor, 10 nM. The Ratio in [1] is 33.
For `Clc1ccc2sc(C3=CCN(Cc4ccccc4)CC3)nc2c1`, in that order: 1800 nM, greater than 1600 nM, 44 nM and greater than 36.
On the same counts, the results for `Clc1ccc2[nH]c(C3=CCN(Cc4ccccc4)CC3)nc2c1` are 2900 nM, 590 nM, 26 nM and 23.
As to `Clc1ccc(CN2CC=C(c3nc4ccccc4s3)CC2)cc1`, the bioavailability came to 17% in series [2] and 9% in series [3]. Besides, the maximum concentration (Cmax) in [4] was determined as 97 ng/mL; in series [5] it was 23 ng/mL. Also, the Plasma clearance with Rattus norvegicus [6] came to 39 Clp. For the same compound, the Vss in the series with Rattus norvegicus [7] came out at 3.81 kg⁻¹; in the series on Rhesus monkey, 2.5 kg⁻¹. Also, the half-life in [8] was 3.1 h; in [9], 4.7 h. The Ki on D(3) dopamine receptor was greater than 4400 nM; on D(2) dopamine receptor it was greater than 1600 nM; on D(4) dopamine receptor it was 1.3 nM. Moreover, the Ratio in series [1] was greater than 1000.
For the compound `C1=C(c2nc3ccccc3[nH]2)CCN(Cc2ccccc2)C1`, the inhibition constant Ki is 4400 nM at D(3) dopamine receptor, 1400 nM at D(2) dopamine receptor and 94 nM on D(4) dopamine receptor. Further, the Ratio in [1] stood at 15.
